Data reported in patent publication US9963456B2, “Pyrrolopyrimidine compound or salt thereof and compositions containing the pyrrolopyrimidine compound or salt thereof” (TAIHO PHARMACEUTICAL CO., LTD., priority 2014, dated 2018).

Target: NAE (heterodimer of APPBP1 and UBA3) (Homo sapiens (Human), UniProt Q8TBC4)
Assay: Nedd8 conjugation inhibitory activity (AlphaScreen assay)
Format: biochemical
Settings: purified NAE, GST-UBC12, Biotin-Nedd8, ATP

NAE (heterodimer of APPBP1 and UBA3), sequence (Q8TBC4 whole entry): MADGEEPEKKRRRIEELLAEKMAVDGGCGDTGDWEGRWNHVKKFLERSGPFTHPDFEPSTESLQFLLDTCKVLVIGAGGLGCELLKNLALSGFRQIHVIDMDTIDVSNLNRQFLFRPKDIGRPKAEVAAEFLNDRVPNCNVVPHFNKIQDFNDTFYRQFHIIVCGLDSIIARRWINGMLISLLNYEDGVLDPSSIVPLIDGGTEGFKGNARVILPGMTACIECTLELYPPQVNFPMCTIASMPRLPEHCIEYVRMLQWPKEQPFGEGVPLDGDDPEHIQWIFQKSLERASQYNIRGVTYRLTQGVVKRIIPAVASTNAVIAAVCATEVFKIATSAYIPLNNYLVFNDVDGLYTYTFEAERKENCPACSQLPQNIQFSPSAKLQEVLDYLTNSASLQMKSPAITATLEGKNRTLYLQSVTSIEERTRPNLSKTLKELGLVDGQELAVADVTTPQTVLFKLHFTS
NAE (heterodimer of APPBP1 and UBA3), sequence (Q13564 whole entry partner): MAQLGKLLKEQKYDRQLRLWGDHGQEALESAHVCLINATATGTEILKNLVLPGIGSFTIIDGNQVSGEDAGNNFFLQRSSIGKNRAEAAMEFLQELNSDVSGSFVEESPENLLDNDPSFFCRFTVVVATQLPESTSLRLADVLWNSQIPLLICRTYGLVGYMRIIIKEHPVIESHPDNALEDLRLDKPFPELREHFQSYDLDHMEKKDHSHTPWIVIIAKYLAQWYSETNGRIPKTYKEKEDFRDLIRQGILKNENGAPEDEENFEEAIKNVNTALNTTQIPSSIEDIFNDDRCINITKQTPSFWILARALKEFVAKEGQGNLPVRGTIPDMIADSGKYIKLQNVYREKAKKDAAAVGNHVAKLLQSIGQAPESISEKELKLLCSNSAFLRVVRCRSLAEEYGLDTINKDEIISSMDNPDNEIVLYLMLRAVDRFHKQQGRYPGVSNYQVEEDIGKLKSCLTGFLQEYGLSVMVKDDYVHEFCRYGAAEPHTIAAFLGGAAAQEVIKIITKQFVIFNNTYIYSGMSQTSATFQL

## Nc1ncnc2c1c(C#Cc1c(F)cc(OCn3nccn3)cc1F)cn2[C@@H]1O[C@H](CNS(N)(=O)=O)[C@@H](O)[C@H]1O [Example 67, 4-Amino-5-[2-[2,6-difluoro-4-(triazol-2-ylmethoxy)phenyl]ethynyl]-7-[(2R,3R,4S,5R)-3,4-dihydroxy-5-[(sulfamoylamino)methyl]tetrahydrofuran-2-yl]pyrrolo[2,3-d]pyrimidine]
  IC50: 0.0085 µM

## Nc1ncnc2c1c(C#Cc1c(F)ccnc1F)cn2[C@@H]1O[C@H](CNS(N)(=O)=O)[C@@H](O)[C@H]1O [Example 69, 4-Amino-5-[2-(2,4-difluoro-3-pyridyl)ethynyl]-7-[(2R,3R,4S,5R)-3,4-dihydroxy-5-[(sulfamoylamino)methyl]tetrahydrofuran-2-yl]pyrrolo[2,3-d]pyrimidine]
  IC50: 0.015 µM

## CCS(=O)(=O)c1cc(N2CCCC2)cc(F)c1C#Cc1cn([C@@H]2O[C@H](CNS(N)(=O)=O)[C@@H](O)[C@H]2O)c2ncnc(N)c12 [Example 70, 4-Amino-7-[(2R,3R,4S,5R)-3,4-dihydroxy-5-[(sulfamoylamino)methyl]tetrahydrofuran-2-yl]-5-[2-(2-ethylsulfonyl-6-fluoro-4-pyrrolidin-1-yl-phenyl)ethynyl]pyrrolo[2,3-d]pyrimidine]
  IC50: 0.013 µM

## COc1cncc(F)c1C#Cc1cn([C@@H]2O[C@H](CNS(N)(=O)=O)[C@@H](O)[C@H]2O)c2ncnc(N)c12 [Example 71, 4-Amino-7-[(2R,3R,4S,5R)-3,4-dihydroxy-5-[(sulfamoylamino)methyl]tetrahydrofuran-2-yl]-5-[2-(3-fluoro-5-methoxy-4-pyridyl)ethynyl]pyrrolo[2,3-d]pyrimidine]
  IC50: 0.014 µM

## CCS(=O)(=O)c1cc(N2CC[C@@H](O)C2)cc(F)c1C#Cc1cn([C@@H]2O[C@H](CNS(N)(=O)=O)[C@@H](O)[C@H]2O)c2ncnc(N)c12 [Example 72, 4-Amino-7-[(2R,3R,4S,5R)-3,4-dihydroxy-5-[(sulfamoylamino)methyl]tetrahydrofuran-2-yl]-5-[2-[2-ethylsulfonyl-6-fluoro-4-[(3R)-3-hydroxypyrrolidin-1-yl]phenyl]ethynyl]pyrrolo[2,3-d]pyrimidine]
  IC50: 0.0044 µM

## Nc1ncnc2c1c(C#Cc1ncc(OCc3ccccc3)cn1)cn2[C@@H]1O[C@H](CNS(N)(=O)=O)[C@@H](O)[C@H]1O [Example 76, 4-Amino-5-[2-(5-benzyloxypyrimidin-2-yl)ethynyl]-7-[(2R,3R,4S,5R)-3,4-dihydroxy-5-[(sulfamoylamino)methyl]tetrahydrofuran-2-yl]pyrrolo[2,3-d]pyrimidine]
  IC50: 0.0051 µM

## NC(=O)c1cccc(F)c1C#Cc1cn([C@@H]2O[C@H](CNS(N)(=O)=O)[C@@H](O)[C@H]2O)c2ncnc(N)c12 [Example 79, 2-[2-[4-Amino-7-[(2R,3R,4S,5R)-3,4-dihydroxy-5-[(sulfamoylamino)methyl]tetrahydrofuran-2-yl]pyrrolo[2,3-d]pyrimidin-5-yl]ethynyl]-3-fluorobenzamide]
  IC50: 0.0032 µM

## COc1ncc(F)c(C#Cc2cn([C@@H]3O[C@H](CNS(N)(=O)=O)[C@@H](O)[C@H]3O)c3ncnc(N)c23)c1F [Example 80, 4-Amino-5-[2-(3,5-difluoro-2-methoxy-4-pyridyl)ethynyl]-7-[(2R,3R,4S,5R)-3,4-dihydroxy-5-[(sulfamoylamino)methyl]tetrahydrofuran-2-yl]pyrrolo[2,3-d]pyrimidine]
  IC50: 0.014 µM

## COc1cnc(OC)c(F)c1C#Cc1cn([C@@H]2O[C@H](CNS(N)(=O)=O)[C@@H](O)[C@H]2O)c2ncnc(N)c12 [Example 81, 4-Amino-7-[(2R,3R,4S,5R)-3,4-dihydroxy-5-[(sulfamoylamino)methyl]tetrahydrofuran-2-yl]-5-[2-(3-fluoro-2,5-dimethoxy-4-pyridyl)ethynyl]pyrrolo[2,3-d]pyrimidine]
  IC50: 0.0056 µM

## CCSc1ccccc1C#Cc1cn([C@@H]2O[C@H](CNS(N)(=O)=O)[C@@H](O)[C@H]2O)c2ncnc(N)c12 [Example 82, 4-Amino-7-[(2R,3R,4S,5R)-3,4-dihydroxy-5-[(sulfamoylamino)methyl]tetrahydrofuran-2-yl]-5-[2-(2-ethylsulfanylphenyl)ethynyl]pyrrolo[2,3-d]pyrimidine]
  IC50: 0.01 µM

## Nc1ncnc2c1c(C#Cc1cccc3c1S(=O)(=O)CCC3)cn2[C@@H]1O[C@H](CNS(N)(=O)=O)[C@@H](O)[C@H]1O [Example 83, 4-Amino-7-[(2R,3R,4S,5R)-3,4-dihydroxy-5-[(sulfamoylamino)methyl]tetrahydrofuran-2-yl]-5-[2-(1,1-dioxo-3,4-dihydro-2H-thiochromen-8-yl)ethynyl]pyrrolo[2,3-d]pyrimidine]
  IC50: 0.019 µM

## Nc1ncnc2c1c(C#Cc1c(F)cccc1S(N)(=O)=O)cn2[C@@H]1O[C@H](CNS(N)(=O)=O)[C@@H](O)[C@H]1O [Example 84, 2-[2-[4-Amino-7-[(2R,3R,4S,5R)-3,4-dihydroxy-5-[(sulfamoylamino)methyl]tetrahydrofuran-2-yl]pyrrolo[2,3-d]pyrimidin-5-yl]ethynyl]-3-fluoro-benzenesulfonamide]
  IC50: 0.0097 µM

## Nc1ncnc2c1c(C#Cc1c(F)cccc1OCC1CC1)cn2[C@@H]1O[C@H](CNS(N)(=O)=O)[C@@H](O)[C@H]1O [Example 86, 4-Amino-5-[2-[2-(cyclopropylmethoxy)-6-fluoro-phenyl]ethynyl]-7-[(2R,3R,4S,5R)-3,4-dihydroxy-5-[(sulfamoylamino)methyl]tetrahydrofuran-2-yl]pyrrolo[2,3-d]pyrimidine]
  IC50: 0.0054 µM

## Nc1ncnc2c1c(C#Cc1ncccc1F)cn2[C@@H]1O[C@H](CNS(N)(=O)=O)[C@@H](O)[C@H]1O [Example 88, 4-Amino-7-[(2R,3R,4S,5R)-3,4-dihydroxy-5-[(sulfamoylamino)methyl]tetrahydrofuran-2-yl]-5-[2-(3-fluoro-2-pyridyl)ethynyl]pyrrolo[2,3-d]pyrimidine]
  IC50: 0.018 µM

## CSc1ccccc1C#Cc1cn([C@@H]2O[C@H](CNS(N)(=O)=O)[C@@H](O)[C@H]2O)c2ncnc(N)c12 [Example 89, 4-Amino-7-[(2R,3R,4S,5R)-3,4-dihydroxy-5-[(sulfamoylamino)methyl]tetrahydrofuran-2-yl]-5-[2-(2-methylsulfanylphenyl)ethynyl]pyrrolo[2,3-d]pyrimidine]
  IC50: 0.011 µM

## Nc1ncnc2c1c(C#Cc1ccccc1S(N)(=O)=O)cn2[C@@H]1O[C@H](CNS(N)(=O)=O)[C@@H](O)[C@H]1O [Example 90, 2-[2-[4-Amino-7-[(2R,3R,4S,5R)-3,4-dihydroxy-5-[(sulfamoylamino)methyl]tetrahydrofuran-2-yl]pyrrolo[2,3-d]pyrimidin-5-yl]ethynyl]benzenesulfonamide]
  IC50: 0.0056 µM

## NC(=O)c1cccc(COc2ccc(C#Cc3cn([C@@H]4O[C@H](CNS(N)(=O)=O)[C@@H](O)[C@H]4O)c4ncnc(N)c34)cc2)c1 [Example 91, 3-[[4-[2-[4-Amino-7-[(2R,3R,4S,5R)-3,4-dihydroxy-5-[(sulfamoylamino)methyl]tetrahydrofuran-2-yl]pyrrolo[2,3-d]pyrimidin-5-yl]ethynyl]phenoxy]methyl]benzamide]
  IC50: 0.018 µM

## COc1cccc(OC)c1C#Cc1cn([C@@H]2C[C@H](CNS(N)(=O)=O)[C@@H](O)[C@H]2O)c2ncnc(N)c12 [Example 94, 4-Amino-7-[(1R,2S,3R,4R)-2,3-dihydroxy-4-[(sulfamoylamino)methyl]cyclopentyl]-5-[2-(2,6-dimethoxyphenyl)ethynyl]pyrrolo[2,3-d]pyrimidine]
  IC50: 0.021 µM

## COc1cccc(F)c1C#Cc1cn([C@@H]2C[C@H](CNS(N)(=O)=O)[C@@H](O)[C@H]2O)c2ncnc(N)c12 [Example 95, 4-Amino-7-[(1R,2S,3R,4R)-2,3-dihydroxy-4-[(sulfamoylamino)methyl]cyclopentyl]-5-[2-(2-fluoro-6-methoxy-phenyl)ethynyl]pyrrolo[2,3-d]pyrimidine]
  IC50: 0.013 µM

## Nc1ncnc2c1c(C#Cc1cccc3cccnc13)cn2[C@@H]1C[C@H](CNS(N)(=O)=O)[C@@H](O)[C@H]1O [Example 96, 8-[2-[4-Amino-7-[(1R,2S,3R,4R)-2,3-dihydroxy-4-[(sulfamoylamino)methyl]cyclopentyl]pyrrolo[2,3-d]pyrimidin-5-yl]ethynyl]quinoline]
  IC50: 0.0092 µM

## CSc1cccc(F)c1C#Cc1cn([C@@H]2C[C@H](CNS(N)(=O)=O)[C@@H](O)[C@H]2O)c2ncnc(N)c12 [Example 98, 4-Amino-7-[(1R,2S,3R,4R)-2,3-dihydroxy-4-[(sulfamoylamino)methyl]cyclopentyl]-5-[2-(2-fluoro-6-methylsulfanyl-phenyl)ethynyl]pyrrolo[2,3-d]pyrimidine]
  IC50: 0.0083 µM

## CCSc1cccc(F)c1C#Cc1cn([C@@H]2C[C@H](CNS(N)(=O)=O)[C@@H](O)[C@H]2O)c2ncnc(N)c12 [Example 99, 4-Amino-7-[(1R,2S,3R,4R)-2,3-dihydroxy-4-[(sulfamoylamino)methyl]cyclopentyl]-5-[2-(2-ethylsulfanyl-6-fluoro-phenyl)ethynyl]pyrrolo[2,3-d]pyrimidine]
  IC50: 0.019 µM

## Nc1ncnc2c1c(C#Cc1c(F)cc(N3CCOCC3)cc1F)cn2[C@@H]1C[C@H](CNS(N)(=O)=O)[C@@H](O)[C@H]1O [Example 101, 4-[4-[2-[4-amino-7-[(1R,2S,3R,4R)-2,3-dihydroxy-4-[(sulfamoylamino)methyl]cyclopentyl]pyrrolo[2,3-d]pyrimidin-5-yl]ethynyl]-3,5-difluoro-phenyl]morpholine]
  IC50: 0.0076 µM

## CN1CCN(c2cc(F)c(C#Cc3cn([C@@H]4C[C@H](CNS(N)(=O)=O)[C@@H](O)[C@H]4O)c4ncnc(N)c34)c(F)c2)CC1 [Example 103, 4-Amino-5-[2-[2,6-difluoro-4-(4-methylpiperazin-1-yl)phenyl]ethynyl]-7-[(1R,2S,3R,4R)-2,3-dihydroxy-4-[(sulfamoylamino)methyl]cyclopentyl]pyrrolo[2,3-d]pyrimidine]
  IC50: 0.013 µM

## Nc1ncnc2c1c(C#Cc1c(F)cc(OCn3cccn3)cc1F)cn2[C@@H]1C[C@H](CNS(N)(=O)=O)[C@@H](O)[C@H]1O [Example 104, 4-Amino-5-[2-[2,6-difluoro-4-(pyrazol-1-ylmethoxy)phenyl]ethynyl]-7-[(1R,2S,3R,4R)-2,3-dihydroxy-4-[(sulfamoylamino)methyl]cyclopentyl]pyrrolo[2,3-d]pyrimidine]
  IC50: 0.0089 µM
